The target in assay [1] is T1, Full-length inactive AKT1 (Homo sapiens, UniProt P31749). Kind of assay: Inactive Akt Alpha Screen Assay. It is filed as biochemical. The following applies: values not marked with "*"; read-out: Akt1 IC50, (AlphaScreen). A digest of the protocol:
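AlphaScreen read-out (excitation 640 nm, emission 570 nm) after 90 min incubation at room temperature in the dark. Signal comes from crosstide phosphorylation by AKT1, which was activated by added PDK1, MAPKAPK2, ATP and lipid vesicles, captured via phospho-AKT substrate antibody and streptavidin beads.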
(In general: Bead proximity is the source of the signal in Alpha formats.)

The subject of the next assay is A2780. Kind of assay: MTS Assay, cell proliferation, A2780. It is filed as cell-based. The settings on record: Homo sapiens, read-out: Average of [CELL], IC50, MTS (72 hours; 10 Percent; FBS) A2780. Here is the method: (§1) Cell proliferation analysis. Cell survival was determined by the MTS assay. Briefly, cells were plated in a 96-well plate at 2,000-10,000 cells per well, cultured for 24 hours in complete growth medium, and then treated with various drugs and drug combinations for 72 hours. MTS was added and incubated for 4 hour, followed by assessment of cell viability using the microplate reader at 570 nm. Data were normalized to untreated controls and analyzed with Microsoft Excel.

The subject of the next assay is AN3CA. Kind of assay: MTS Assay, cell proliferation, AN3CA. The assay is classed as cell-based. The settings on record: Homo sapiens, AN3-CA, read-out: Average of [CELL], IC50, MTS (72 hours; 10 Percent; FBS) AN3CA. On the procedure: as §1
The test system of a further assay is BT474. Kind of assay: MTS Assay, cell proliferation, BT474. The assay is classed as cell-based. The settings on record: Homo sapiens, BT-474, read-out: Average of [CELL], IC50, MTS (72 hours; 10 Percent; FBS) BT474. On the procedure:
as §1

In the next assay the test system is LnCap. Kind of assay: MTS Assay, cell proliferation, LnCap. The following applies: Homo sapiens, read-out: Average of [CELL], IC50, MTS (72 hours; 10 Percent; FBS) LnCap. It is filed as cell-based. Here is the method: as §1
The target in assay [2] is T1, Full-length inactive AKT1. Kind of assay: Inactive Akt HTRF Assay (Akt1).
Procedure: AKT1 activity was assayed using CisBio KinEASE™ HTRF Assay technology. This technology utilizes a proprietary biotinylated peptide substrate (STKS3), streptavidin labeled XL665 antibody, and STK antibody-Eu^3+-cryptate. AKT1 activation was achieved by the addition of the activating kinases PDK1 and MAPKAPK2, lipid vesicles, and ATP. The extent of STKS3 biotinylated peptide phosphorylation was determined using a phospho-STK antibody-Eu^3+-cryptate and streptavidin labeled XL665 antibody. XL665 was stimulated by Eu^3+-cryptate resulting in a TR-FRET signal proportional to the SKS3 phosphorylation level.
A further assay deals with Zr75-1. Kind of assay: MTS Assay, cell proliferation, Zr75-1. The settings on record: Homo sapiens, ZR-75-1, read-out: Average of [CELL], IC50, MTS (72 hours; 10 Percent; FBS) Zr75-1. It is filed as cell-based. On the procedure: as §1

T1 sequence (P31749 whole entry): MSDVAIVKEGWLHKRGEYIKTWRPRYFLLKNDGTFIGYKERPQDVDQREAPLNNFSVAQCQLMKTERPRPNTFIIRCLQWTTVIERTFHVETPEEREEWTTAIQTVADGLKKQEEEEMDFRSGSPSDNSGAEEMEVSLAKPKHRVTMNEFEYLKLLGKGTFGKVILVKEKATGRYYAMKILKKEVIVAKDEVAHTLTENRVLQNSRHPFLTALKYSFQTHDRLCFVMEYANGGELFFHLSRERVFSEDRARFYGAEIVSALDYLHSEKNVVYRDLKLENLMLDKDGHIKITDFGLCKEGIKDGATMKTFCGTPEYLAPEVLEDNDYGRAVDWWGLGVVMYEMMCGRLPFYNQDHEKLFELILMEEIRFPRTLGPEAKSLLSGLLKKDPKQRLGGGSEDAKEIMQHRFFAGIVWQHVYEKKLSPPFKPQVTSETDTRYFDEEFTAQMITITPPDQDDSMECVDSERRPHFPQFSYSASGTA

Regarding `CC(=O)Nc1cccc(NC(=O)Cc2ccc(-n3c(-c4cccnc4N)nc4ccc(-c5cccc(NC(C)=O)c5)nc43)cc2)c1` [Example 289, N-(3-acetamidophenyl)-2-(4-(5-(3-acetamidophenyl)-2-(2-aminopyridin-3-yl)-3H-imidazo[4,5-b]pyridin-3-yl)phenyl)acetamide], the IC50 was determined as 6.3 nM in assay [1]; 10 µM in the assay with A2780; 12 µM with AN3CA; 3200 nM with BT474; 17000 nM with LnCap.
The like results for `CC(=O)Nc1cccc(-c2ccc3nc(-c4cccnc4N)n(-c4ccc(CC(=O)Nc5ccc6nc(C)ccc6c5)cc4)c3n2)c1` [Example 290, 2-(4-(5-(3-acetamidophenyl)-2-(2-amino-pyridin-3-yl)-3H-imidazo[4,5-b]pyridin-3-yl)phenyl)-N-(2-methylquinolin-6-yl)acetamide] were, in that order, 12 nM, 3.8 µM, 1.1 µM, 620 nM and 2100 nM.
Turning to `Nc1ncccc1-c1nc2cc(-c3ccc(F)cc3)cnc2n1-c1ccc(CNC(=O)c2ccccc2)cc1` [Example 141, N-{4-[2-(2-aminopyridin-3-yl)-6-(4-fluorophenyl)-3H-imidazo[4,5-b]pyridin-3-yl]benzyl}benzamide], the IC50 in assay [2] came to 7.8 µM.
Consider `CCCCNC(=O)Cc1ccc(-n2c(-c3cccnc3N)nc3ccc(-c4cccc(NC(C)=O)c4)nc32)cc1` [Example 297, 2-(4-(5-(3-acetamidophenyl)-2-(2-aminopyridin-3-yl)-3H-imidazo[4,5-b]pyridin-3-yl)phenyl)-N-butylacetamide], for which the IC50 in assay [1] was 35 nM; in the assay on A2780 it was 15 µM; in the assay with AN3CA, 6.5 µM; in the assay on BT474 it was 3600 nM; with LnCap it was 3000 nM.
Turning to `Cc1ccc(-c2cnc3c(c2)nc(-c2cccnc2N)n3-c2ccc(CNC(=O)c3ccccc3)cc2)cc1` [Example 144, N-{4-[2-(2-aminopyridin-3-yl)-6-(4-methylphenyl)-3H-imidazo[4,5-b]pyridin-3-yl]benzyl}benzamide], in assay [2], the IC50 came out at 4.5 µM.
On to `Nc1ncccc1-c1nc2ccc(-c3cn[nH]c3)nc2n1-c1ccc(CNC(=O)c2cccc(F)c2)cc1` [Example 305, N-(4-(2-(2-aminopyridin-3-yl)-5-(1H-pyrazol-4-yl)-3H-imidazo[4,5-b]pyridin-3-yl)benzyl)-3-fluorobenzamide], for which the 50% inhibitory concentration (IC50) in assay [1] is 12 nM; in the assay on A2780 it was 6.8 µM; in the assay on AN3CA, 12 µM; with BT474 it was 4200 nM; in the assay with LnCap, 13000 nM; with Zr75-1 it was 8.2 µM.
As for `CC(=O)Nc1cccc(-c2ccc3nc(-c4cccnc4N)n(-c4ccc(CNS(=O)(=O)c5ccccc5)cc4)c3n2)c1` [Example 324, N-(3-(2-(2-aminopyridin-3-yl)-3-(4-(phenylsulfonamidomethyl)phenyl)-3H-imidazo[4,5-b]pyridin-5-yl)phenyl)acetamide], the IC50 worked out at 14 nM in assay [1]; 6.3 µM in the assay with A2780; 5 µM in the assay on AN3CA; 2500 nM in the assay with BT474; 4200 nM in the assay on LnCap; 3.6 µM with Zr75-1.
`Nc1ncccc1-c1nc2cccnc2n1-c1ccc(CC(=O)Nc2ccc(Cl)cn2)cc1` [Example 117, 2-{4-[2-(2-aminopyridin-3-yl)-3H-imidazo[4,5-b]pyridin-3-yl]phenyl}-N-(5-chloropyridin-2-yl)acetamide] came in with an IC50 in assay [2] of 3.96 µM.
Take `Nc1ncccc1-c1nc2ccc(-c3cccc(CO)c3)nc2n1-c1ccc(CNC(=O)c2cccc(F)c2)cc1` [Example 308, N-(4-(2-(2-aminopyridin-3-yl)-5-(3-(hydroxymethyl)phenyl)-3H-imidazo[4,5-b]pyridin-3-yl)benzyl)-3-fluorobenzamide]: the IC50 in assay [1] was determined as 21 nM; in the assay on A2780, 2.3 µM; with AN3CA, 2.5 µM; in the assay on BT474, 1800 nM; in the assay with LnCap, 2600 nM; in the assay on Zr75-1, 4.3 µM.
Turning to `Nc1ncccc1-c1nc2cc(Br)cnc2n1-c1ccc(CNS(=O)(=O)c2ccc3ccccc3c2)cc1` [Example 157, N-{4-[2-(2-aminopyridin-3-yl)-6-bromo-3H-imidazo[4,5-b]pyridin-3-yl]benzyl}naphthalene-2-sulfonamide], in assay [2], half-maximal inhibition (IC50) was put at 8.1 µM.
In the case of `CC(=O)Nc1cccc(-c2ccc3nc(-c4cccnc4N)n(-c4ccc(CC(=O)NC(C)C)cc4)c3n2)c1` [Example 296, 2-(4-(5-(3-acetamidophenyl)-2-(2-aminopyridin-3-yl)-3H-imidazo[4,5-b]pyridin-3-yl)phenyl)-N-isopropylacetamide], the IC50 in assay [1] was 95 nM; in the assay with A2780, 33 µM; in the assay on AN3CA, 12 µM; in the assay on BT474, 6900 nM; in the assay with LnCap, 3900 nM.
The like results for `CC(=O)Nc1cccc(-c2ccc3nc(-c4cccnc4N)n(-c4ccc(CC(=O)Nc5ccccc5)cc4)c3n2)c1` [Example 261, 2-(4-(5-(3-acetamidophenyl)-2-(2-aminopyridin-3-yl)-3H-imidazo[4,5-b]pyridin-3-yl)phenyl)-N-phenylacetamide] were, in that order, 13 nM, 3.3 µM, 2.2 µM, 1300 nM and 1900 nM.
The like results for `Cc1cnc2c(c1)nc(-c1cccnc1N)n2-c1ccc(CC(=O)Nc2ccc3ncccc3c2)cc1` [Example 295, 2-(4-(2-(2-aminopyridin-3-yl)-6-methyl-3H-imidazo[4,5-b]pyridin-3-yl)phenyl)-N-(quinolin-6-yl)acetamide] were, in that order, 76 nM, 3.8 µM, 3.3 µM, 5000 nM and 1800 nM.
The like results for `Nc1ncccc1-c1nc2ccc(-c3cccnc3)nc2n1-c1ccc(CNC(=O)c2cccc(F)c2)cc1` [Example 333, N-(4-(2-(2-aminopyridin-3-yl)-5-(pyridin-3-yl)-3H-imidazo[4,5-b]pyridin-3-yl)benzyl)-3-fluorobenzamide] were, in that order, 100 nM, 13 µM, 12 µM, 6100 nM and 5700 nM.
Molecule `Nc1ncccc1-c1nc2cccnc2n1-c1ccc(C(=O)NCc2ccccc2)cc1` [Example 178, 4-[2-(2-aminopyridin-3-yl)-3H-imidazo[4,5-b]pyridin-3-yl]-N-benzylbenzamide] gave an IC50 in assay [2] of 7.1 µM.
The same measure, in the same setting: as for `Nc1ncccc1-c1nc2cccnc2n1-c1ccc(-n2cncn2)cc1` [Example 31], the figure is 22.1 µM.
Regarding `CC(=O)Nc1cccc(-c2ccc3nc(-c4cccnc4N)n(-c4ccc(CNC(=O)c5ccccc5)cc4)c3n2)c1` [Example 287, N-(4-(5-(3-acetamidophenyl)-2-(2-aminopyridin-3-yl)-3H-imidazo[4,5-b]pyridin-3-yl)benzyl)benzamide], the IC50 is 14 nM in assay [1]; 1.6 µM with A2780; 1.5 µM in the assay with AN3CA; 1200 nM with BT474; 2000 nM in the assay on LnCap.
Consider `CCCCNC(=O)Cc1ccc(-n2c(-c3cccnc3N)nc3cccnc32)cc1` [Example 132, 2-{4-[2-(2-aminopyridin-3-yl)-3H-imidazo[4,5-b]pyridin-3-yl]phenyl}-N-butylacetamide], for which, in assay [2], the IC50 came to 6.84 µM.
Same read-out and setting: the figure for `Nc1ncccc1-c1nc2cc(-c3ccccc3Br)cnc2n1-c1ccc(CNC(=O)c2ccccc2)cc1` [Example 136, N-{4-[2-(2-aminopyridin-3-yl)-6-(2-bromophenyl)-3H-imidazo[4,5-b]pyridin-3-yl]benzyl}benzamide] is 7.1 µM.
As to `CC(=O)Nc1cccc(-c2ccc3nc(-c4cccnc4N)n(-c4ccc(CC(=O)Nc5cccc(F)c5)cc4)c3n2)c1` [Example 294, 2-(4-(5-(3-acetamidophenyl)-2-(2-aminopyridin-3-yl)-3H-imidazo[4,5-b]pyridin-3-yl)phenyl)-N-(3-fluorophenyl)acetamide], the IC50 was determined as 16 nM in assay [1]; 3.3 µM with A2780; 1.7 µM in the assay on AN3CA; 1100 nM in the assay with BT474; 950 nM in the assay with LnCap.
For `CC(=O)Nc1ccc(-c2ccc3nc(-c4cccnc4N)n(-c4ccc(CNC(=O)c5ccc(C)c(F)c5)cc4)c3n2)cc1` [Example 292, N-(4-(5-(4-acetamidophenyl)-2-(2-aminopyridin-3-yl)-3H-imidazo[4,5-b]pyridin-3-yl)benzyl)-3-fluoro-4-methylbenzamide], the IC50 in assay [1] amounted to 96 nM; with A2780, 7.4 µM; in the assay on AN3CA it was 2.3 µM; in the assay with BT474, 940 nM; with LnCap, 730 nM.
`CC(C(=O)NCc1ccc(-n2c(-c3cccnc3N)nc3cccnc32)cc1)c1ccccc1` (centres unmarked) [Example 51, N-{4-[2-(2-aminopyridin-3-yl)-3H-imidazo[4,5-b]pyridin-3-yl]benzyl}-2-phenylpropanamide] came in with a half-maximal inhibitory concentration (IC50) in assay [2] of 82.8 µM.

As a reminder, the IC50 is the concentration at which inhibition is half-maximal.
